Source: US20150125397A1, “DUAL SPECIFIC BINDING PROTEINS DIRECTED AGAINST IMMUNE CELL RECEPTORS AND AUTOANTIGENS” (ABBVIE INC., priority 2013, published 2015)

Key:
Assay type in all cases: cell-based, mouse
[1] = system: Dnase2−/− Ifnar1−/− Unc93b1−/− TKO B cells; test: 3H-thymidine incorporation of B220-purified B cells, TKO; conditions: 24 hours, FIG. 10C
Description: (§1) Mice: RF and Tlr-9^−/− mice have been described previously (Uccellini et al. (2008) J. Immunol. 181:5875-5884), The DNase II-deficient mice on a C57BL/6 background were kindly provided by Dr. S, Nagata and obtained from the RIKEN Institute. […] and Unc93B1-deficient mice were obtained from Jackson Lab. DnaseII^−/− Ifnar1^−/− (Het), DnaseII^−/− Ifnar1−/− (DKO), and DnaseII^−/− Unc93b1^−/− (TKO), were bred at UMMS. All mice were maintained at the Department of Animal Medicine of the University of Massachusetts Medical School in accordance with the regulations of the American Association for the Accreditation of Laboratory Animal Care.
(§2) Proliferation of B220+ B cells: B cells were purified by magnetic bead separation using CD45R/B220-conjugated magnetic particles (BD Biosciences, San Jose, Calif., USA) and stimulated as described previously (Nundel et al. (2013) J. Leukoc. Biol. 94:865-875) with 15 μg/ml goat anti-mouse IgM F(ab′)2 (Jackson ImmunoResearch), ODN1826 (CpG; Idera Pharmaceuticals), anti-DNA-mAb (Leadbetter et al. (2002) Nature 416:603-607), or DVD-Ig proteins (1 μg/ml). B cell proliferation was assessed by ^3H-thymidine (Amersham Biosciences, Piscataway, N.J., USA) incorporation at 24 hours post-stimulation. For long-term proliferation assays, B220-purified B cells were labeled with a final concentration of 2.5 μM CFSE (Life Technologies) in PBS for 2 minutes. […]

Primary murine B cells = test: CFSE dilution / Sytox Blue FACS of primary murine B cells; conditions: 72 hours; absence of BLyS; FIG. 3
Procedure: Primary murine B cells were purified by positive selection as described above. For cultures >48 hours old, proliferation was quantified by carboxyfluorescein diacetate, succinimidyl ester (CFSE) dilution and cell death by TO-PRO-3 binding. To label the cells with CFSE, the cells were first washed 2 times with PBS. Next, the stock of CFSE was diluted to 10 μM in PBS and the cells were brought to 1×10^7 cells/ml. The cells were mixed at a 1:1 ratio with 10 μM CFSE and mixed gently for 2 minutes. The CFSE labeling reaction was stopped by adding heat inactivated fetal calf serum equal in volume to the starting volume for the cell suspension. […] Proliferation was measured by fluorophore dilution at 60-72 hours by flow cytometry. […]
Primary murine B cells were labeled and prepared as in Example 2.7 and stimulated with either media alone, […] of TLR9 ligand CpG oligodeoxynucleotide (ODN) 1826, […] of the mouse anti-chromatin autoantibody PL2-3 or […] DVD3759 in the presence or absence of […] of the B cell survival factor BLyS. After 72 hours, cells were stained with 1 μM of the cell permeable DNA stain Sytox Blue and analyzed by fluorescence activated cell sorting (FACS). Cell division was determined by dilution of CFSE and dead cells were identified by staining with Sytox Blue.

[2] = system: Dnase2−/− Ifnar1−/− DKO B cells; test: 3H-thymidine incorporation of B220-purified B cells, DKO; conditions: 24 hours, FIG. 10C
Description: as §1, §2

## ODN 1826 [reference compound]
[1]
  response of TKO B cells: failed to respond
Primary murine B cells
  cell division (CFSE dilution) and cell death (Sytox Blue): post-proliferative cell death was not observed
[2]
  response of DKO B cells: normal response
